Results taken from patent US8383651B2, “Compounds which selectively modulate the CB2 receptor” (Boehringer Ingelheim International GmbH, priority 2009, dated 2013).
Read-outs that look alike come from different tables or passages of the source.

Assays:
human CB2R = molecular target: T1, human CB2R (Homo sapiens, UniProt P34972); assay: CB2R mediated modulation of cAMP synthesis; type: cell-based
T1 construct: host or cells: CHO cells
Description: B. CB2R Mediated Modulation of Camp Synthesis:
Compounds of the invention are evaluated for their CB2 agonist or inverse agonistic activity in accordance with the following experimental method.
(§1) CHO cells expressing human CB2R (Euroscreen) are plated at a density of 5000 cells per well in 384 well plates and incubated overnight at 37° C. After removing the media, the cells are treated with test compounds diluted in stimulation buffer containing 1 mM IBMX, 0.25% BSA and 10 uM Forskolin. The assay is incubated for 30 minutes at 37° C. Cells are lysed and the cAMP concentration is measured using DiscoverX-XS cAMP kit, following the manufacturer's protocol. In this setting, agonists will decrease forskolin induced production of cAMP while inverse agonists will further increase forskolin induced production of cAMP. EC50 of agonists are calculated as follows. The maximal amount of cAMP produced by forskolin compared to the level of cAMP inhibited by 1 uM CP55940 is defined as 100%. The EC50 value of each test compound is determined as the concentration at which 50% of the forskolin-stimulated cAMP synthesis is inhibited. Data is analyzed using a four-parameter logistic model. (Model 205 of XLfit 4.0).

human CB1R = molecular target: T2, human CB1R (Homo sapiens, UniProt P21554); assay: CB1R mediated modulation of cAMP synthesis; type: cell-based; conditions: inhibition of forskolin-stimulated cAMP synthesis
T2 construct: host or cells: CHO cells
T2 sequence (P21554 whole entry): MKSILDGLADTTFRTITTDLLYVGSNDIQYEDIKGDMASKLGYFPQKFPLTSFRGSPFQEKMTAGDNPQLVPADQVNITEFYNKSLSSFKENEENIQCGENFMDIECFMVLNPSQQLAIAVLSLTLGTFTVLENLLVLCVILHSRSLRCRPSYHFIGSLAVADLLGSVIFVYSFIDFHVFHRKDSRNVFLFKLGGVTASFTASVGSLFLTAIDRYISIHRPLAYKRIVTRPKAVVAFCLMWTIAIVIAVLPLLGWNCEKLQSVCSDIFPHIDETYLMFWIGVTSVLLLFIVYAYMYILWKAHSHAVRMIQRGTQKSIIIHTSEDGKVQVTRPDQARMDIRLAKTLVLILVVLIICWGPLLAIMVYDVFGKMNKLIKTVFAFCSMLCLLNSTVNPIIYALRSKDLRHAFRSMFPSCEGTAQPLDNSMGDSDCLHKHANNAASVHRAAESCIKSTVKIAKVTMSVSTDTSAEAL
Description: C. CB1R Mediated Modulation of cAMP Synthesis:
Compounds of the invention are evaluated for their CB1 agonist or inverse agonistic activity in accordance with the following experimental method.
as §1, with “CB1R” for “CB2R”

[1] = CB1 EC50, CHO cells expressing human CB1R
[2] = CHO cells expressing human CB2R, inhibition of forskolin-stimulated cAMP synthesis, read-out: CB2 EC50
[3] = CHO cells expressing human CB1R, read-out: CB1 EC50

T1 sequence (P34972 whole entry): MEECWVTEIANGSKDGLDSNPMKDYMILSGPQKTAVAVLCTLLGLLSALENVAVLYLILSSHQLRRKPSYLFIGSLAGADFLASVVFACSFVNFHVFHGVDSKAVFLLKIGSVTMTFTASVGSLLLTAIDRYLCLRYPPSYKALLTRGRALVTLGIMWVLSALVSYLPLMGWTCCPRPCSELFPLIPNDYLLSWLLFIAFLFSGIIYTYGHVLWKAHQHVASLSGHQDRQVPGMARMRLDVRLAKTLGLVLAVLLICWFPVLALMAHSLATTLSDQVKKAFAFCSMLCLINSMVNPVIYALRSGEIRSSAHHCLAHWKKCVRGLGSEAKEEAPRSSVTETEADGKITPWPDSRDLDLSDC

Q: What does the source list for Cc1ncc(C(C)(C)c2cc(NC(=O)C(C)(C)S(=O)(=O)C3CCOCC3)on2)o1?
A: EC50 (human CB2R): 6.8 nM; EC50 (human CB1R; [1]): > 200000 nM

Q: How did the EC50 (human CB2R) turn out when CC(C)(c1cc(NC(=O)C(C)(C)S(=O)(=O)C2CCOCC2)on1)c1cnc(-c2ccccc2)o1 was run?
A: Its EC50 is 21 nM.

Q: And the EC50 (human CB1R; [1])?
A: The EC50 was greater than 50000 nM.

Q: How did the EC50 (human CB2R) turn out when CC(C)(C(=O)Nc1nc(-c2ncco2)n[nH]1)S(=O)(=O)C1CCOCC1 was run?
A: Its EC50 is 84 nM.

Q: And the EC50 (human CB1R; [1])?
A: Its EC50 is greater than 50000 nM.

Q: Which results are given for Cc1cc(-c2n[nH]c(NC(=O)C(C)(C)S(=O)(=O)C3CCOCC3)n2)no1?
A: EC50 (human CB2R; [2]): 268 nM; EC50 (human CB1R; [3]): > 50000 nM

Q: What does the source list for Cc1cc(-c2nnc(NC(=O)C(C)(C)S(=O)(=O)CCC(C)C)[nH]2)no1?
A: EC50 (human CB2R): 37 nM; EC50 (human CB1R; [1]): > 50000 nM

Q: Which EC50 (human CB2R; [2]) does the source give for Cc1cc(-c2nnc(NC(=O)C(C)(C)S(=O)(=O)CCCC(F)(F)F)[nH]2)no1 here?
A: The EC50 was 271 nM.

Q: What about the EC50 (human CB1R; [3]) of the same compound?
A: The EC50 was greater than 50000 nM.

Q: With CC(C)(C(=O)Nc1nnc(-c2nccs2)[nH]1)S(=O)(=O)C1CCOCC1 as the compound, how does the EC50 (human CB2R; [2]) read?
A: The EC50 was 303 nM.

Q: And the EC50 (human CB1R; [3])?
A: The EC50 was greater than 50000 nM.

Q: What does the source list for CC(C)CCS(=O)(=O)C(C)(C)C(=O)Nc1nnc(-c2ncco2)[nH]1?
A: EC50 (human CB2R; [2]): 172 nM; EC50 (human CB1R; [3]): > 50000 nM

Q: What does the source list for Cc1cc(-c2n[nH]c(NC(=O)C(C)(C)S(=O)(=O)C3CCOCC3)n2)n(C)n1?
A: EC50 (human CB2R; [2]): 487 nM; EC50 (human CB1R; [3]): > 50000 nM

Q: Which results are given for Cc1cc(-c2nnc(NC(=O)C(C)(C)S(=O)(=O)C3CCCCC3)[nH]2)on1?
A: EC50 (human CB2R): 55 nM; EC50 (human CB1R; [1]): > 20000 nM

Q: How did the EC50 (human CB2R; [2]) turn out when Cc1cc(-c2nnc(NC(=O)C(C)(C)S(=O)(=O)CCC3CCOCC3)[nH]2)on1 was run?
A: The EC50 was 142 nM.

Q: What about the EC50 (human CB1R; [3]) of the same compound?
A: The EC50 was greater than 50000 nM.

Q: Which results are given for Cc1cc(-c2nnc(NC(=O)C(C)(C)S(=O)(=O)CCC(C)C)[nH]2)on1?
A: EC50 (human CB2R; [2]): 142 nM; EC50 (human CB1R; [3]): > 50000 nM

Q: How did the EC50 (human CB2R) turn out when Cc1nnc(C(C)(C)c2cc(NC(=O)C(C)(C)S(=O)(=O)c3ccc(F)cc3)on2)o1 was run?
A: Its EC50 is 97 nM.

Q: And the EC50 (human CB1R; [1])?
A: The EC50 was greater than 50000 nM.

Q: Cc1nnc(C(C)(C)c2cc(NC(=O)C(C)(C)S(=O)(=O)CCCC(F)(F)F)on2)o1 was tested. Which EC50 (human CB2R) did it give?
A: Its EC50 is 18 nM.

Q: What about the EC50 (human CB1R; [1]) of the same compound?
A: Its EC50 is 23100 nM.

Q: With Cc1ncc(C(C)(C)c2cc(NC(=O)C(C)(C)S(=O)(=O)C3CCOCC3)on2)s1 as the compound, how does the EC50 (human CB2R) read?
A: The EC50 was 3.4 nM.

Q: What about the EC50 (human CB1R; [1]) of the same compound?
A: Its EC50 is greater than 50000 nM.

Q: Cc1ncc(C(C)(C)c2cc(NC(=O)C(C)(C)S(=O)(=O)C3CCN(S(C)(=O)=O)CC3)on2)s1 was tested. Which EC50 (human CB2R) did it give?
A: The EC50 was 28 nM.

Q: What about the EC50 (human CB1R; [1]) of the same compound?
A: Its EC50 is 25100 nM.

Q: What does the source list for CCc1ncc(C(C)(C)c2cc(NC(=O)C(C)(C)S(=O)(=O)C3CCN(S(C)(=O)=O)CC3)on2)o1?
A: EC50 (human CB2R): 25 nM; EC50 (human CB1R; [1]): 26500 nM

Q: With Cc1nnc(C(C)(C)c2cc(NC(=O)C(C)(C)S(=O)(=O)C3CCN(S(C)(=O)=O)CC3)on2)o1 as the compound, how does the EC50 (human CB2R; [2]) read?
A: The EC50 was 161 nM.

Q: What about the EC50 (human CB1R; [3]) of the same compound?
A: The EC50 was greater than 50000 nM.

Q: How did the EC50 (human CB2R) turn out when Cc1ncc(C2(c3cc(NC(=O)C(C)(C)S(=O)(=O)C4CCOCC4)on3)CCCC2)o1 [drawing 84] was run?
A: The EC50 was 4.6 nM.

Q: And the EC50 (human CB1R; [1])?
A: Its EC50 is 30000 nM.

Q: How did the EC50 (human CB1R; [1]) turn out when Cc1ncc(C2(c3cc(NC(=O)C(C)(C)S(=O)(=O)C4CCOCC4)on3)CCCC2)o1 [drawing 89] was run?
A: Its EC50 is 30000 nM.
